# Measured values taken from patent US20040198811A1 (H. Lundbeck A/S, priority 2001, published 2004).
# Columns and labels:
# Format in all cases: in vivo
# [1] = tested on: primary care patients with major depression disorder; test: 8-week, double-blind, randomised, placebo-controlled, flexible-dose clinical study
# Text: (§1) This has i.a. been found in the Chronic Mild Stress model (Willner P., Psychopharmachology 1997, 134, 319-329).
# A total of 471 patients were randomised into the study. The all-patient-treated set comprised 469 patients and the full-analysis set comprised 468 patients.
# There was an approximately 3 to 1 ratio of women to men in each treatment group, and almost all patients were Caucasian. The mean age was 43 years (SD 11). At baseline, the mean MADRS total score was approximately 29 for the treatment group, which signifies moderate to severely ill patients.
# [2] = pharmacological and clinical studies (effect of R-citalopram, potency versus racemate)
# Text: This may be shown in functional in-vivo pharmacological models and studies of 5-HT-reuptake effect and or in behaviour models, for example depression models.
# animal models = test: Chronic Mild Stress model
# Text: as §1
# [3] = fixed dose studies (MADRS rating scale and Clinical Global Impression); conditions: escitalopram in a dose of 10 mg
# [4] = Week 4, last observation carried forward, 10 mg escitalopram, 20 mg citalopram
compound,measurement,setting,value
"CN(C)CCCC1(c2ccc(F)cc2)OCc2cc(C#N)ccc21 (racemic) [citalopram, reference compound]",adjusted mean change in MADRS total score versus placebo,[1]; [4],1.5 points
"CN(C)CCC[C@]1(c2ccc(F)cc2)OCc2cc(C#N)ccc21 [R-citalopram, reference compound]",impact on the effect of escitalopram,[2]; in vivo,negative impact
"(S)-1-[3-(dimethylamino)propyl]-1-4-fluorophenyl)-1,3-dihydro-5-isobenzofurancarbonitdile [escitalopram]",speed of response,animal models,faster response than citalopram-racemate
same,potency relative to the racemate,[2]; pharmacological and clinical studies,substantially more than two times as potent as the racemate
same,effect as determined by MADRS rating scale and Clinical Global Impression (severity and improvement),[3],at least same effect as citalopram in a dose of 40 mg
same,onset of effect,"[1]; 10 mg escitalopram, 20 mg citalopram, versus placebo",showed effects after one week
same,therapeutic effect versus placebo on adjusted mean change in MADRS total score,"[1]; Week 1 (p=0.023) to Week 4, observed cases",significantly superior therapeutic effect
same,CGI improvement and severity subscale versus placebo,"[1]; Week 4, last observation carried forward",statistically significantly superior to placebo
same,adjusted mean change in MADRS total score versus placebo,[1]; [4],2.7 points
same,CGI improvement and severity subscale versus placebo,"[1]; from Week 1 onwards, 4-week period, observed cases",significantly superior to placebo
